Literature values, collected in patent publication US11512314B2, “Amphiphilic polynucleotides” (Duke University, priority 2019, dated 2022).
pKd: −log10 of the molar value. Where two headings read alike, the source gives them in different places.

Assays:
[1] = target: prostate-specific membrane antigen (PSMA) (Homo sapiens, UniProt Q04609); conditions: binding to PSMA
[2] = free 5FU, reported value
[3] = small molecule drug

Chain of prostate-specific membrane antigen (PSMA) (Q04609 whole entry): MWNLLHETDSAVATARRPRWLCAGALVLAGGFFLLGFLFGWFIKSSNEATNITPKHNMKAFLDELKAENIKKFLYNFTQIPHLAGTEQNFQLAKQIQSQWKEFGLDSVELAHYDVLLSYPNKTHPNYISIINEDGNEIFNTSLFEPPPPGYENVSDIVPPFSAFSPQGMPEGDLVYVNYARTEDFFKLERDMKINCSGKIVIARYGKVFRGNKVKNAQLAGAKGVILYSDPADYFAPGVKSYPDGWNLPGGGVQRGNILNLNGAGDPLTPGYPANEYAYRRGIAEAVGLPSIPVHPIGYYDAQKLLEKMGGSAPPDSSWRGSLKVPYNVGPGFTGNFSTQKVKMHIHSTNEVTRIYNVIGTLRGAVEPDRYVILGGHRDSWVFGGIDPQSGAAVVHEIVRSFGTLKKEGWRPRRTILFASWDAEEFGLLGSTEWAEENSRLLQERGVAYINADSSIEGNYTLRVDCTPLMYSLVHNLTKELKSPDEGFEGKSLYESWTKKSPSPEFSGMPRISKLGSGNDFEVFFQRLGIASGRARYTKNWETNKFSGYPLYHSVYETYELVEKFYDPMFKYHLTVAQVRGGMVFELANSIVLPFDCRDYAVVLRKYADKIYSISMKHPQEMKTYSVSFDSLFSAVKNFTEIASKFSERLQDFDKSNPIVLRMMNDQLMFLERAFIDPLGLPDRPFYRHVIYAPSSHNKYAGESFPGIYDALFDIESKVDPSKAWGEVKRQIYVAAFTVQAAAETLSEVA

| Compound | pKd [1] | reported MTD [2] | reported MTD ([2]; listed as 5-FU) | half-life [3] |
| --- | --- | --- | --- | --- |
| 5′-GGGAGGACGAUGCGGAUCAGCCAUGUUUACGUCACUCCU-3′ (listed as RNA, chemistry not given here) [A10] | 8.68 |  |  |  |
| O=c1[nH]cc(F)c(=O)[nH]1 [5FU] |  | 15 to 20 mg/kg | 20 mg/kg | 8 to 14 min |
